# Read-outs that look alike come from different tables or passages of the source.
# How the values were obtained:
# MCF7 = assay: Cell viability assay (CellTiter-Blue, 72 hr); format: cell-based; conditions: MCF7; human cancer cells; read-out: CELL KILLING EC50 (μM) Breast MCF7
# Protocol: (§1) Cancer cell lines were seeded in 96 well tissue culture plate at a low density (10,000 cells per well) and treated with varying concentrations of Eggmanone. After 72 hr incubation, CellTiter-Blue Cell Viability Assay (Promega, Madison, Wis.) was then performed according to manufacturer's protocol. Absorbance was then measured in a Modulus Microplate reader (Promega, Madison, Wis.) at 590 nm and compared to cells treated with DMSO.
# (§2) Cancer cell lines were seeded in 96 well tissue culture plate at a low density and treated with varying concentrations of compounds identified in Table 7. After 72 hr incubation, CellTiter-Blue Cell Viability Assay (Promega, Madison, Wis.) was then performed according to manufacturer's protocol. Absorbance was then measured in a Modulus Microplate reader (Promega, Madison, Wis.) at 590 nm and compared to cells treated with DMSO.
# [1] = tested on: Hedgehog signaling (Gli-Luc reporter); assay: Hh Gli-Luciferase reporter assay in Shh-Light2 cells; format: cell-based, mouse; conditions: Mus musculus, Shh Light2
# Protocol: For Hh signaling assays, Shh-Light2 cells stably transfected with Gli-Luciferase reporter construct were used along with Shh-conditioned media, as previously described^7. Alternatively, 3 μM purmorphamine or 20 nM Smoothened agonist (SAG) (Santa Cruz Biotechnology, Santa Cruz, Calif.) was used to induce Hh signaling. Reporter cells were seeded in 96-well plates and incubated overnight with the various concentrations of eggmanone and Shh-conditioned media. To assess the effects of overexpression of Gli-2, PDE4D3 and DN-PDE4D3 on Hh signaling, mammalian expression vectors containing these constructs were transfected into Shh-Light2 cells in 96-well plates using Fugene6 (Roche), according to manufacturer's instructions. The transfected or Shh-stimulated cells were incubated overnight with the various concentrations of compound. The cells were then lysed, and cell extracts were subjected to Steady-Glo luciferase assay (Promega) according to manufacturer's instructions. The results were normalized to cell titer, as determined using Cell Titer-Glo luminescence assay (Promega).
# PC3 = assay: Cell viability assay (CellTiter-Blue, 72 hr); format: cell-based; conditions: PC-3; human cancer cells; read-out: CELL KILLING EC50 (μM) Prostate PCx3
# Protocol: as §1
# PDE4D3 = target: T1, PDE4D3 (Homo sapiens, UniProt Q08499); assay: In vitro PDE assay; format: biochemical
# T1 construct: purchased BPS Biosciences (San Diego, Calif.); kinetic studies by Millipore (St. Louis, Mo.)
# Protocol: (§3) In vitro PDE profiling and dose-response assays were performed by BPS Biosciences (San Diego, Calif.). Kinetic Mechanism of inhibition studies were conducted by Millipore (St. Louis, Mo.). In brief, the PDE assay measures fluorescent polarization of FAM-AMP as FAM-cAMP is converted to FAM-AMP by PDE), the binding agent.
# (§4) A series of dilutions of the test compound were prepared with 10% DMSO in assay buffer and 5 μl of the dilution was added to a 50 μl reaction so that the final concentration of DMSO is 1% in all of reactions. All of the PDE enzymatic reactions were conducted in duplicate at room temperature for 60 minutes in a 50 μl mixture containing PDE assay buffer (10 mM Tris-HCl, pH7.4, 10 mM MaCl2, 0.05% Tween 20), 100 nM FAM-cAMP, a PDE enzyme and a test compound.
# (§5) After the enzymatic reaction, 100 μl of a binding solution (1:100 dilution of the binding agent, which contains the nano beads that recognize FAM-AMP, with the binding agent diluent) was added to each reaction and the reaction was performed at room temperature for 60 minutes. Fluorescence intensity was measured at an excitation of 485 nm and an emission of 528 nm using a Tecan Infinite M1000 microplate reader. Assays done by Millipore were conducted similarly with changes noted below: […]
# H82 = assay: Cell killing EC50 in H82 lung cancer cells (Table 10); format: cell-based; conditions: NCI-H82; human cancer cells
# Protocol: It is anticipated that compounds disclosed herein could serve as an anti-tumor, anti-angiogenic, anti-metastatic, agent in the treatment of cancer. To this end, a series of clinically relevant cancer lines were assayed and the cell-killing EC50s for compounds according to the subject matter disclosed herein are provided in Table 10.
# DaoY = assay: Cell viability assay (CellTiter-Blue, 72 hr); format: cell-based, Human; conditions: Daoy; human cancer cells; read-out: CELL KILLING EC50 (μM) Medulloblastoma DaoY
# Protocol: as §1, §2
# SW480 = assay: Cell viability assay (CellTiter-Blue, 72 hr); format: cell-based, Human; conditions: SW480; human cancer cells; read-out: CELL KILLING EC50 (μM) Colon SW480
# Protocol: as §1, §2
# DU145 = assay: Cell viability assay (CellTiter-Blue, 72 hr); format: cell-based, Human; conditions: DU-145; human cancer cells; read-out: CELL KILLING EC50 (μM) Prostate DU145
# Protocol: as §1, §2
# HeLa = assay: Cell viability assay (CellTiter-Blue, 72 hr); format: cell-based, Human; conditions: human cancer cells, read-out: CELL KILLING EC50 (μM) Cervix HeLa
# Protocol: as §1, §2
# RWGT2 = assay: Cell viability assay (CellTiter-Blue, 72 hr); format: cell-based, Human; conditions: human cancer cells; read-out: CELL KILLING EC50 (μM) Lung Squam, NSCLC RWGT2
# Protocol: as §1, §2
# MDA-MB- 231 = assay: Cell viability assay (CellTiter-Blue, 72 hr); format: cell-based, Human; conditions: MDA-MB-231; human cancer cells; read-out: CELL KILLING EC50 (μM) Breast MDA-231
# Protocol: as §1, §2
# RKO = assay: Cell viability assay (CellTiter-Blue, 72 hr); format: cell-based, Human; conditions: RKO; human cancer cells; read-out: CELL KILLING EC50 (μM) Colon RKO
# Protocol: as §1, §2
# [2] = Lipophilic efficiency (LipE = pEC50 − cLogP) and cLogP
# Protocol: Therefore, we prioritized phenotypic analog evaluation in the Gli-responsive luciferase reporter line TM3-Gli-Luc stimulated with 20 nM Smo agonist (SAG) while concurrently monitoring non-specific cellular toxicity. Additionally, lipophilic efficiency (LipE), a concurrent readout of a compound's potency (pEC50) and lipophilicity (cLogP) derived by subtracting the latter from the former, was utilized to optimize solubility properties (Table 12B), allowing for straightforward tracking of compounds with improvements in both parameters.
# [3] = tested on: Hedgehog signaling (TM3-Gli-Luc); assay: TM3-Gli-Luc luciferase reporter assay stimulated with 20 nM SAG; format: cell-based
# Method in brief: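 TM3-Gli-Luc cells on 0.1% gelatin in DMEM/F12 with 2.5% FBS, treated 48 h with compound plus 20 nM SAG. Steady-Glo luminescence normalized to CellTiter-Glo viability, DMSO-only (no SAG) background subtracted, percent of SAG control. EC50 averaged from ≥2 independent days ±SEM.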
# PDE4D2 = target: T2, PDE4D2 (Homo sapiens, UniProt Q08499); assay: In vitro PDE assay; format: biochemical; conditions: Table 9A
# T2 construct: purchased BPS Biosciences (San Diego, Calif.)
# Protocol: as §3, §4, §5
# Gli1 mRNA = assay: Hh % Inh.: SAG-induced Gli1 expression in C3H10T½ cells (qPCR); format: cell-based; conditions: Mus musculus, C3H 10T1/2, SAG-induced (100 nM), 24 hours; for inhibition at 1 µM: 1 pM [sic], read-out: C3H10T1/2 qPCR, Gh1 mRNA % Inh., 1 pM; for inhibition at 10 µM: 10 pM [sic], read-out: C3H10T1/2 qPCR, Gh1 mRNA % Inh., 10 pM
# Protocol: Compounds are dosed from 10 mM DMSO stock solutions, and mRNA is isolated after 24 hours of compound treatment. mRNA is reverse transcribed to produce cDNA which is quantified by quantitative polymerase chain reaction (qPCR) in triplicate and levels are normalized to GAPDH levels. Data is presented as percent inhibition compared to positive control (SAG).
# PDE4D = PDE4D (Homo sapiens, UniProt Q08499); assay: PDE4 inhibition assay (PDE4D IC50); format: biochemical
# Protocol: as §3, §4
# After the enzymatic reaction, 100 μl of a binding solution (1:100 dilution of the binding agent, which contains the nano beads that recognize FAM-AMP, with the binding agent diluent) was added to each reaction and the reaction was performed at room temperature for 60 minutes. Fluorescence intensity was measured at an excitation of 485 nm and an emission of 528 nm using a Tecan Infinite M1000 microplate reader. Assays done by Millipore were conducted similarly with changes noted below:
# Hedgehog signaling inhibition and PDE4 inhibition of various compounds disclosed herein was assayed as described herein above.
# [4] = Calculated as pEC50 - cLogP, Molinspiration Cheminformatics
# [5] = 20 nM SAG, mean ± standard error of the mean, read-out: TM3-Gli-Luc EC50
# [6] = Table 9A, read-out: TM3 G8 Luciferase EC 50
# [7] = calculated as pEC50 - cLogP (Molinspiration Cheminformatics), Table 13
# [8] = TM3-Gli-Luc reporter line stimulated with 20 nM SAG, mean ± SEM, Table 13, read-out: TM3-Gli-Luc EC50
# T2 sequence (Q08499 303-809): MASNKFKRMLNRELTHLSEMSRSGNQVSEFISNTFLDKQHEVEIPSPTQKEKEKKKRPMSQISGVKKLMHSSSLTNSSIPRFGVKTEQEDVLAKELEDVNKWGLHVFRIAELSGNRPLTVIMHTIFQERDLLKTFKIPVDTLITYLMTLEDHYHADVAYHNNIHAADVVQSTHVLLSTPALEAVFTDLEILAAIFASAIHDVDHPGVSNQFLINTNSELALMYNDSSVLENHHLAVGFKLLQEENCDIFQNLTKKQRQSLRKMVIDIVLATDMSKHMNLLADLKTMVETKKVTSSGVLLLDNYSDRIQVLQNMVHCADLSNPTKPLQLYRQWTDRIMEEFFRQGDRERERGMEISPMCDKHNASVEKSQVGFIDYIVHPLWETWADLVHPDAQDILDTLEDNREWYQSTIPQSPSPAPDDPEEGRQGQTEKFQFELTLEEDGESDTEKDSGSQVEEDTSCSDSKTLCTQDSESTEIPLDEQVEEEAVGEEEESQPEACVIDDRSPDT
# T1 sequence (Q08499 1-673 isoform Q08499-2): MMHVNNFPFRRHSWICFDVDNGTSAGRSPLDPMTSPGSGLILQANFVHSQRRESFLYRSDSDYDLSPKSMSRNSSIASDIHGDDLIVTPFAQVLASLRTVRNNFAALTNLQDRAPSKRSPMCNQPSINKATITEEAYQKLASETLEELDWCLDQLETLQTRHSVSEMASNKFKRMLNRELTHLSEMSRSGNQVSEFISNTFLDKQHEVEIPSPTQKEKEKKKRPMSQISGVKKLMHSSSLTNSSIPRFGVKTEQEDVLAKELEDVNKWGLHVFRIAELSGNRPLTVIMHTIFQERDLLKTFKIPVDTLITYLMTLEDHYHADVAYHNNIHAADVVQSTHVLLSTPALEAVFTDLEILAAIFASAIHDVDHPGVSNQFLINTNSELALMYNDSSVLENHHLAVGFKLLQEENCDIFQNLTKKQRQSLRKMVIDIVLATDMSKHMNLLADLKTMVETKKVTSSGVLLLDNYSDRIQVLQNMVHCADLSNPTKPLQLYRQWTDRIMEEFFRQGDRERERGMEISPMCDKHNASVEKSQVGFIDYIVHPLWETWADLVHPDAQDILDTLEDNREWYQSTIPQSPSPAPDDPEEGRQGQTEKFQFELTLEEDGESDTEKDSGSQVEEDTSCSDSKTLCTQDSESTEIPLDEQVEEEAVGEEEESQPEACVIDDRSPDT
structure (smiles),measurement,setting,value
C=CCn1c(SCC(=O)c2ccccc2)nc2sc(CC)cc2c1=O [HI630],EC50,MCF7,> 100 µM
same,EC50,"[1]; Table 9B, read-out: Shh Light2 Luc EC50",> 10 µM
same,EC50,PC3,> 100 µM
same,IC50,PDE4D3; Table 9B,6 µM
same,EC50,H82,> 100 µM
same,EC50,DaoY,> 100 µM
same,EC50,SW480,182 µM
same,EC50,DU145,> 100 µM
same,EC50,HeLa,> 100 µM
same,EC50,RWGT2,44.4 µM
same,EC50,MDA-MB- 231,23.1 µM
same,EC50,RKO,100 µM
C=C(C)Cn1c(SCC(=O)c2cccs2)nc2sc3c(c2c1=O)CCNC3 [Formula 10a],LipE,[2]; [4],1.45
same,EC50,[3]; [5],6.4 ± 0.33 µM
"CS(=O)(=O)c1ccc(C(=O)Nc2ccc(Cl)c(-c3ccccn3)c2)c(Cl)c1 [Vismodegib, reference compound]",LipE,[2]; [4],4.33
same,Hh inhibitory activity / potency in words,[3]; 20 nM SAG,displayed expected potency
same,Hh inhibitory activity / potency in words,"[3]; 20 nM SAG, listed as 1",low-nanomolar
same,EC50,[3]; [5],0.013 ± 0.004 µM
C=C(C)Cn1c(SCC(=O)N2CCOCC2)nc2sc3c(c2c1=O)CCCC3 [JEH-3-079],EC50,[3]; [6],18.2 µM
same,IC50,PDE4D2,3.2 µM
same,IC50,PDE4D3; Table 9A,4.1 µM
same,inhibition at 1 µM,Gli1 mRNA,25.1%
same,inhibition at 10 µM,Gli1 mRNA,50.8%
C=C(C)Cn1c(SCC(=O)c2cccs2)nc2sc3c(c2c1=O)CCCC3 [Formula 3],LipE,[2]; [4],0.73
same,LipE,"[2]; pEC50 - cLogP, Table 14",0.73
same,EC50,[3]; [5],1.34 ± 0.002 µM
same,EC50,"[3]; TM3-Gli-Luc reporter line stimulated with 20 nM SAG, mean ± SEM, Table 14, read-out: TM3-Gli-Luc EC50",1.34 ± 0.002 µM
same,IC50,"PDE4D; mean ± SEM, normalized to DMSO, read-out: PDE4D IC50",0.38 ± 0.02 µM
C=CCn1c(SCC(=O)N2CCOCC2)nc2sc3c(c2c1=O)CCCC3 [Formula 1L4R],EC50,[3]; [6],2.82 µM
same,IC50,PDE4D2,> 100 µM
same,IC50,PDE4D3; Table 9A,> 100 µM
C=CCn1c(SCC(=O)N2CCCC[C@H]2C)nc2sc3c(c2c1=O)CCCC3 [Formula 1KMR],IC50,PDE4D2,7.6 µM
same,IC50,PDE4D3; Table 9A,11 µM
C=CCn1c(SCC(=O)c2ccccn2)nc2sc3c(c2c1=O)CCCC3 [Formula 1KL1],IC50,PDE4D2,25 µM
same,IC50,PDE4D3; Table 9A,62 µM
O=C(CSc1nc2sc3c(c2c(=O)n1-c1ccccc1)CCCC3)c1cccs1 [JEH-3-058-1],EC50,[3]; [6],12.6 µM
same,IC50,PDE4D2,45 µM
same,IC50,PDE4D3; Table 9A,14 µM
same,inhibition at 1 µM,Gli1 mRNA,12%
same,inhibition at 10 µM,Gli1 mRNA,85.3%
O=C(CSc1nccc(=O)n1C1CC1)c1ccccc1 [Formula 14c],LipE,[2]; [7],2.46
same,Hh inhibitory activity / potency in words,[3]; 20 nM SAG,potency improvements over EGM1
same,EC50,[3]; [8],1.16 ± 0.39 µM
C=CCn1c(SCC(=O)N2Cc3ccccc3C2)nc2sc3c(c2c1=O)CCCC3 [Formula 1KYW],IC50,PDE4D2,> 100 µM
same,IC50,PDE4D3; Table 9A,> 100 µM
C=C(C)Cn1c(SCC(=O)N2CCCC[C@H]2C)nc2sc3c(c2c1=O)CCCC3 [Formula 1ANQ],"TM3 G8 Luciferase % Inh., 0.5 pM",[3]; 0.5 pM as printed,17.4%
same,IC50,PDE4D2,1.2 µM
same,IC50,PDE4D3; Table 9A,1.7 µM
C=C(C)Cn1c(SCC(=O)c2cccs2)nccc1=O [Formula 19a],LipE,[2]; [7],2.06
same,EC50,[3]; [8],0.931 ± 0.11 µM
C=CCn1c(SCC(=O)c2ccncc2)nc2sc3c(c2c1=O)CCCC3 [Formula 1KMH],IC50,PDE4D2,5 µM
same,IC50,PDE4D3; Table 9A,8.2 µM
"C=C(C)Cn1c(SCC(=O)c2cccs2)nc2sc3c(c2c1=O)CCCC3 [Formula (1), 3-(2-methylallyl)-2-((2-oxo-2-(thiophen-2-yl)ethyl)thio)-5,6,7,8-tetrahydrobenzo[4,5]thieno[2,3-d]pyrimidine-4(3H)-one]",EC50,"[1]; Table 8, read-out: Hh Inhibition Assay (EC50)",1.5 µM
same,IC50,"PDE4D; Table 8, read-out: PDE4 Inhibition Assay (IC50)",0.893 µM
